According to US20250122171A1, “Substituted Amine Compounds, Compositions and Methods of Use” (Deep Apple Therapeutics, Inc., priority 2023, published 2025):

Molecular target: T1, human MRGPRX2 (Homo sapiens, UniProt Q96LB1)
T1 construct: expressed in transfected cells; host or cells: FlpIn TRex HEK293 (TRex-MRGPRX2-HEK), doxycycline-induced
T1 sequence (Q96LB1 1-330): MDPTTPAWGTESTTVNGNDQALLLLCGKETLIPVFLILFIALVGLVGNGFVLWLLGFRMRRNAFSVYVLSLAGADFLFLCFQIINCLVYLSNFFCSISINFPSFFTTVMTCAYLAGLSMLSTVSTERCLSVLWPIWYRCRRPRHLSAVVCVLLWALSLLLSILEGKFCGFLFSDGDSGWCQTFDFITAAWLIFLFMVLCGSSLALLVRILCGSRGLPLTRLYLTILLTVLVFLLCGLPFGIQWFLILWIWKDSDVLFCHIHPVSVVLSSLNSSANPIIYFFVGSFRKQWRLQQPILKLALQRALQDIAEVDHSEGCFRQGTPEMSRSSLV
Assay: MRGPRX2 Activity Assay (IP-1 HTRF, antagonist mode)
Format: cell-based
Details: FlpIn TRex-MRGPRX2-HEK293 cells; versus 1 μM Cortistatin-14 agonist; 30 minutes preincubation
Description: FlpIn TRex-MRGPRX2-HEK293 cells (herein TRex-MRPGRX2-HEK) stably transfected to express human MRGPRX2 were maintained at 37° C. with 5% CO2 and grown in DMEM supplemented with 10% FBS, 1% L-Glutamate, 1% penicillin/streptomycin, 100 ug/mL Hygromycin B, and 15 ug/mL Blasticidin.
GOI (MRGPRX2) expression was induced with 100 ng/mL of Doxycycline 18-24 hours prior to experiment, in flask. On the day of experiment, cells were lifted with TripLE Express and seeded in 384-well white walled opaque bottomed, assay plates, at 8,000 cells per well in 5 uL freshly made assay buffer (HBSS, 20 mM HEPES, 0.1% BSA and 10 mM LiCl). Compounds solubilized in 100% DMSO at 30 mM were serially diluted (1:4) first in 100% DMSO, and an intermediate plate of assay buffer was used to establish a final top concentration of 30 uM (in assay plate). Final DMSO concentration was kept constant at 1% across assay plates. […], at 30 mM stock concentration was solubilized in HBSS+0.1% BSA, stored at −20° C. in 5 μL aliquots and discarded after one freeze-thaw cycle. […].
Antagonist equilibrium was established with 30 minutes preincubation, followed by no wash, direct addition, and stimulation of agonist for 1 hour at 37° C./5% CO2. IP-1 standards and HTRF detection reagents were added according to the IP-one Gq kit protocol purchased from CisBio (part number 62IPAPEJ). The plate was read on an EnVision XCite plate reader. The HTRF ratio was then calculated from raw data (channel1/channel2×10,000) and analyzed using either GraphPad Prism or a custom Python script to calculate IC50 using Log[Antagonist] vs. response (4 parameter) nonlinear regression.

Row | Compound | IC50 [nM]
1 | (R)-2-((S)-4,4-difluoro-3-(6-oxo-1,6-dihydropyridin-3-yl)piperidin-1-yl)-N-(1-(3,5-difluorobenzyl)-1H-imidazol-4-yl)propanamide [Compound 79] | 18100
2 | C[C@@H](C(=O)Nc1cn(Cc2cc(F)cc(F)c2)cn1)N1CCC(F)(F)[C@@H](c2ccc(=O)[nH]c2)C1 (single isomer, unassigned) [Compound 54] | 432
3 | C[C@@H](C(=O)Nc1cn(Cc2ccncc2Cl)cn1)N1CCC(F)(F)[C@@H](c2cc[n+]([O-])cc2)C1 [Compound 63, 4-((S)-1-((S)-1-((1-((3-chloropyridin-4-yl)methyl)-1H-imidazol-4-yl)amino)-1-oxopropan-2-yl)-4,4-difluoropiperidin-3-yl)pyridine 1-oxide] | 114
4 | C[C@H](C(=O)Nc1cn(Cc2cc(F)cc(F)c2)cn1)N1CCC(F)(F)[C@H](c2ccc(=O)n(C)c2)C1 (single isomer, unassigned) [Compound 70] | > 30000
5 | C[C@H](C(=O)Nc1cn(Cc2cc(F)cc(F)c2)c(CF)n1)N1CCC(F)(F)[C@@H](c2cc[n+]([O-])cc2)C1 (single isomer, unassigned) [Compound 61] | 477
6 | C[C@@H](C(=O)Nc1nc2ccccc2s1)N1CCC(F)(F)[C@@H](c2cc[n+]([O-])cc2)C1 (single isomer, unassigned) [Compound 84] | 12700
7 | C[C@@H](C(=O)Nc1cn(Cc2cc(F)cc(F)c2)cn1)N1CCC(F)(F)[C@@H](c2c[nH]c(=O)c(CO)c2)C1 (single isomer, unassigned) [Compound 71] | 2360
8 | C[C@@H](C(=O)Nc1cn(Cc2cc(F)cc(F)c2)cn1)N1CCC(F)(F)[C@H](c2c[nH]c(=O)c(CO)c2)C1 (single isomer, unassigned) [Compound 73] | 8560
9 | C[C@@H](C(=O)Nc1cn(Cc2ccc(Cl)c(F)c2)cn1)N1CCC(F)(F)[C@@H](c2cc[n+]([O-])cc2)C1 [Compound 47, 4-((S)-1-((S)-1-((1-(4-chloro-3-fluorobenzyl)-1H-imidazol-4-yl)amino)-1-oxopropan-2-yl)-4,4-difluoropiperidin-3-yl)pyridine 1-oxide] | 775
10 | C[C@@H](C(=O)Nc1cn(Cc2cc(F)cc(F)c2)c(C(F)(F)F)n1)N1CCC(F)(F)[C@@H](c2cc[n+]([O-])cc2)C1 (single isomer, unassigned) [Compound 25] | > 10000
11 | C[C@H](C(=O)Nc1cn([C@@H](C)c2cc(F)cc(F)c2)cn1)N1CCC(F)(F)[C@@H](c2cc[n+]([O-])cc2)C1 (single isomer, unassigned) [Compound 13] | 233
12 | C[C@@H](C(=O)Nc1cn(Cc2cccc(F)c2)cn1)N1CCC(F)(F)[C@@H](c2cc[n+]([O-])cc2)C1 [Compound 38, 4-((S)-4,4-difluoro-1-((S)-1-((1-(3-fluorobenzyl)-1H-imidazol-4-yl)amino)-1-oxopropan-2-yl)piperidin-3-yl)pyridine 1-oxide] | 93
13 | C[C@@H](C(=O)Nc1cn2c(n1)CC[C@@H]2c1cc(F)cc(F)c1)N1CCC(F)(F)[C@@H](c2ccc(=O)n(C)c2)C1 (single isomer, unassigned) [Compound 532] | 5200
14 | C[C@@H](C(=O)Nc1cn(Cc2ccc(F)cc2Cl)cn1)N1CCC(F)(F)[C@@H](c2cc[n+]([O-])cc2)C1 [Compound 48, 4-((S)-1-((S)-1-((1-(2-chloro-4-fluorobenzyl)-1H-imidazol-4-yl)amino)-1-oxopropan-2-yl)-4,4-difluoropiperidin-3-yl)pyridine 1-oxide] | 214
15 | C[C@@H](C(=O)Nc1cn(Cc2cccc(F)c2F)cn1)N1CCC(F)(F)[C@@H](c2cc[n+]([O-])cc2)C1 [Compound 49, 4-((S)-1-((S)-1-((1-(2,3-difluorobenzyl)-1H-imidazol-4-yl)amino)-1-oxopropan-2-yl)-4,4-difluoropiperidin-3-yl)pyridine 1-oxide] | 53
16 | C[C@@H](C(=O)Nc1cn(Cc2ccc(F)cc2F)cn1)N1CCC(F)(F)[C@H](c2cc[n+]([O-])cc2)C1 (single isomer, unassigned) [Compound 3] | > 10000
17 | C[C@@H](C(=O)Nc1cn(Cc2ccccc2F)cn1)N1CCC(F)(F)[C@@H](c2cc[n+]([O-])cc2)C1 [Compound 37, 4-((S)-4,4-difluoro-1-((S)-1-((1-(2-fluorobenzyl)-1H-imidazol-4-yl)amino)-1-oxopropan-2-yl)piperidin-3-yl)pyridine 1-oxide] | 54
18 | C[C@@H](C(=O)Nc1cn(Cc2cc(F)c(F)cc2F)cn1)N1CCC(F)(F)[C@@H](c2cc[n+]([O-])cc2)C1 [Compound 65, 4-((S)-4,4-difluoro-1-((S)-1-oxo-1-((1-(2,4,5-trifluorobenzyl)-1H-imidazol-4-yl)amino)propan-2-yl)piperidin-3-yl)pyridine 1-oxide] | 504
19 | C[C@@H](C(=O)Nc1cn(-c2cc(F)cc(F)c2)cn1)N1CCC(F)(F)[C@@H](c2cc[n+]([O-])cc2)C1 [Compound 75, 4-((S)-1-((S)-1-((1-(3,5-difluorophenyl)-1H-imidazol-4-yl)amino)-1-oxopropan-2-yl)-4,4-difluoropiperidin-3-yl)pyridine 1-oxide] | 513
20 | C[C@H](C(=O)Nc1cn([C@H](C)c2cc(F)cc(F)c2)cn1)N1CCC(F)(F)[C@@H](c2cc[n+]([O-])cc2)C1 (single isomer, unassigned) [Compound 16] | > 10000
21 | C[C@@H](C(=O)Nc1cn2c(n1)[C@@H](O)C[C@H]2c1cc(F)cc(F)c1)N1CCC(F)(F)[C@@H](c2ccc(=O)[nH]c2)C1 (single isomer, unassigned) [Compound 517] | > 30000
22 | C[C@@H](C(=O)Nc1cn2c(n1)CC[C@@H]2c1cc(F)cc(F)c1)N1CCC(F)(F)[C@H](c2cc[n+]([O-])c(CO)c2)C1 (single isomer, unassigned) [Compound 526] | 9.8
23 | C[C@H](C(=O)Nc1cn(Cc2cc(F)cc(F)c2)c(Cl)n1)N1CCC(F)(F)[C@@H](c2cc[n+]([O-])cc2)C1 (single isomer, unassigned) [Compound 81] | > 30000
24 | C[C@@H](C(=O)Nc1cn2c(n1)CC[C@H]2c1cc(F)cc(F)c1)N1CCC(F)(F)[C@@H](c2cc[n+]([O-])cc2)C1 (single isomer, unassigned) [Compound 487] | 13800
25 | C[C@@H](C(=O)Nc1cn(Cc2cc(F)ccc2C(F)(F)F)cn1)N1CCC(F)(F)[C@@H](c2cc[n+]([O-])cc2)C1 [Compound 62, 4-((S)-4,4-difluoro-1-((S)-1-((1-(5-fluoro-2-(trifluoromethyl)benzyl)-1H-imidazol-4-yl)amino)-1-oxopropan-2-yl)piperidin-3-yl)pyridine 1-oxide] | 267
26 | C[C@@H](C(=O)Nc1cn2c(n1)CC[C@H]2c1cc(F)cc(F)c1)N1CCOCC1 (single isomer, unassigned) [Compound 514] | > 30000
27 | C[C@@H](C(=O)Nc1cn(Cc2cc(F)cc(F)c2)c(C(F)F)n1)N1CCC(F)(F)[C@@H](c2cc[n+]([O-])cc2)C1 (single isomer, unassigned) [Compound 82] | 1170
28 | C[C@H](C(=O)Nc1cn(Cc2ccc(F)cc2F)cn1)N1CCC(F)(F)[C@@H](c2cc[n+]([O-])cc2)C1 (single isomer, unassigned) [Compound 2] | 2950
29 | C[C@H](C(=O)Nc1cn2c(n1)CC[C@H]2c1cc(F)cc(F)c1)N1CCC(F)(F)[C@@H](c2cc[n+]([O-])cc2)C1 (single isomer, unassigned) [Compound 486] | 1180
